Seven compounds from US20250326771A1, “PIPERAZINE DERIVATIVES USEFUL IN HIV THERAPY” (VIIV HEALTHCARE COMPANY, priority 2022, published 2025) can be followed below.

Like-named read-outs stand apart in the source and are kept apart here.

Experiment [1] has as its system Jurkat HIV-luciferase clones. The experiment in a line: Jurkat latency reversal assay. Type of experiment: cell-based. Conditions: Homo sapiens, 48 h; Jurkat latency reversal assay potency; read-out: Jurkat pEC50 (converted). A digest of the protocol: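 Latency reversal was scored as provirus-driven luciferase luminescence in pooled Jurkat HIV-luc clones after 48 h compound exposure at 37° C. EC50 and maximal activation over vehicle were fitted with a four-parameter logistic model.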

In the next experiment the target is cIAP1-BIR3 (Homo sapiens (Human), UniProt Q13490). The experiment in a line: BIR binding assay (FRET competition), cIAP1 BIR3. Conditions: for cIAP1 BIR3 vs BIR2 separation window: fold separation (FS) for cIAP1. A digest of the protocol: (§1)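 Each domain is run separately at its own level: 50 nM cIAP1-BIR3, 100 nM XIAP-BIR3, 325 nM for cIAP1-BIR2 or cIAP2-BIR2. Probe is a 200 nM fluorescent SMAC peptide, and the value is IC50 from FRET competition.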
Chain of cIAP1-BIR3 (Q13490 253-363): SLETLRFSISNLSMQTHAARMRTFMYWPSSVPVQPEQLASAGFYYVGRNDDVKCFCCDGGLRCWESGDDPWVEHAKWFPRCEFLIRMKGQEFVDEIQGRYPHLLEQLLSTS

The target of another experiment is cIAP1-BIR2 (Homo sapiens (Human), UniProt Q13490). The experiment in a line: BIR binding assay (FRET competition), cIAP1 BIR2. A digest of the protocol:
as §1

Another experiment addresses cIAP2-BIR3 (Homo sapiens (Human), UniProt Q13489). The experiment in a line: BIR binding assay (FRET competition), cIAP2 BIR3. The settings on record: for cIAP2 BIR3 vs BIR2 separation window: fold separation (FS) for cIAP2.
The target in another experiment is cIAP2-BIR2 (Homo sapiens (Human), UniProt Q13489). The experiment in a line: BIR binding assay (FRET competition), cIAP2 BIR2. A digest of the protocol: as §1
Chain of cIAP2-BIR2 (Q13489 158-242): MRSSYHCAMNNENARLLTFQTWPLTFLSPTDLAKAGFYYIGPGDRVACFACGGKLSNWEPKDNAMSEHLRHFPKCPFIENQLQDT
The target in a further experiment is XIAP-BIR3 (Homo sapiens (Human), UniProt P98170). The experiment in a line: BIR binding assay (FRET competition), XIAP BIR3. Conditions: for XIAP BIR3 vs BIR2 separation window: fold separation (FS) for XIAP. A digest of the protocol:
as §1

For a further experiment, the target named is XIAP-BIR2 (Homo sapiens (Human), UniProt P98170). The experiment in a line: BIR binding assay (FRET competition), XIAP BIR2. The method in brief: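 Compounds in a 15-point, 3-fold series competed with an AlexaFluor647 SMAC peptide (AVPIAQKSE, 200 nM) for 200 nM His-tagged XIAP-BIR2 over 60 min in pH 7.4 HEPES/CHAPS/DTT buffer. Eu-W1024 (2 nM) was then added for 30 min. IC50 and pIC50 were derived from the 615 nm/665 nm emission ratio by variable-slope fit.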
Chain of XIAP-BIR2 (P98170 124-240): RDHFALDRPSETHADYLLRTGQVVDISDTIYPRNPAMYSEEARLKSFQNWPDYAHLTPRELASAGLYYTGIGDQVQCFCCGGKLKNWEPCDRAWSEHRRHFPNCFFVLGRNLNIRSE

Where [2] appears, read: FRET competition binding, read-out: XIAP BIR2 (pIC50) (converted).
[3] abbreviates: FRET competition, read-out: XIAP BIR2 (pIC50) (converted).

Chain of cIAP2-BIR3 (Q13489 238-349): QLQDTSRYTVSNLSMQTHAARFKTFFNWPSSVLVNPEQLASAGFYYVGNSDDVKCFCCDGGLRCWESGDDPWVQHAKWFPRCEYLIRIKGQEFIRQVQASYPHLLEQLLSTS
Chain of XIAP-BIR3 (P98170 241-356): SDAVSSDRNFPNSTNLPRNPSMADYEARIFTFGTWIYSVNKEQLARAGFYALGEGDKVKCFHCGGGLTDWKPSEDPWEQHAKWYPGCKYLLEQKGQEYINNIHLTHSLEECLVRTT
Chain of cIAP1-BIR2 (Q13490 173-257): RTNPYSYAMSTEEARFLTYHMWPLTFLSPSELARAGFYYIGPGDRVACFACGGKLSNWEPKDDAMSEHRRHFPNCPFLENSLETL

For `C[C@@H]1CN(CC(=O)N2CC(C)(C)c3[nH]c(=O)c(Cc4ccc(F)cc4)cc32)[C@@H](CN2CCO[C@H](C(=O)NCC#CC#CCNC(=O)[C@@H]3CN(C[C@H]4CN[C@H](C)CN4CC(=O)N4CC(C)(C)c5[nH]c(=O)c(Cc6ccc(F)cc6)cc54)CCO3)C2)CN1` [Example 93, (2S,2'S)-N,N′-(hexa-2,4-diyne-1,6-diyl)bis(4-(((2R,5R)-1-(2-(6-(4-fluorobenzyl)-3,3-dimethyl-5-oxo-2,3,4,5-tetrahydro-1H-pyrrolo[3,2-b]pyridin-1-yl)-2-oxoethyl)-5-methylpiperazin-2-yl)methyl)morpholine-2-carboxamide)], in experiment [1], the EC50 is 0.0126 to 0.0631 µM. Moreover, the IC50 on cIAP1-BIR3 is 0.00794 to 0.0158 µM; at cIAP1-BIR2, 0.0224 to 1 µM; on cIAP2-BIR3 it was 0.00794 to 0.0158 µM; at cIAP2-BIR2, 1 to 3.16 µM; at XIAP-BIR3, 0.0316 to 0.501 µM; at XIAP-BIR2 (setting [2]) it was 10 to 51.3 µM. Further, at cIAP1-BIR3, the “cIAP1 BIR3 vs BIR2 separation window” value is listed as “++ (1,000>FS>100)”. The “cIAP2 BIR3 vs BIR2 separation window” value at cIAP2-BIR3 is “+++ (10,000>FS>1,000)”. In addition, the “XIAP BIR3 vs BIR2 separation window” value on XIAP-BIR3 is given as “++++ (FS>10,000)”.

Regarding `C[C@@H]1CN(CC(=O)N2CC(C)(C)c3[nH]c(=O)c(Oc4ccc(Br)cc4)cc32)[C@@H](CN2CCO[C@H](C(=O)NCc3ccc(CNC(=O)[C@@H]4CN(C[C@H]5CN[C@H](C)CN5CC(=O)N5CC(C)(C)c6[nH]c(=O)c(Oc7ccc(Br)cc7)cc65)CCO4)cc3)C2)CN1` [Compound 183, (2S,2′S)-N,N′-(1,4-phenylenebis(methylene)) bis(4-(((2R,5R)-1-(2-(6-(4-bromophenoxy)-3,3-dimethyl-5-oxo-2,3,4,5-tetrahydro-1H-pyrrolo[3,2-b]pyridin-1-yl)-2-oxoethyl)-5-methylpiperazin-2-yl)methyl)morpholine-2-carboxamide)], the EC50 in experiment [1] was 0.0631 to 0.316 µM. Also, the IC50 on cIAP1-BIR3 was 0.00138 to 0.00794 µM; at cIAP1-BIR2, 1 to 3.16 µM; on cIAP2-BIR3, 0.00138 to 0.00794 µM; at cIAP2-BIR2, 1 to 3.16 µM; on XIAP-BIR3, 0.0316 to 0.501 µM; on XIAP-BIR2 (setting [3]), 10 to 51.3 µM. For the same compound, the “cIAP1 BIR3 vs BIR2 separation window” value on cIAP1-BIR3 is reported as “+++ (10,000>FS>1,000)”. On cIAP2-BIR3, the “cIAP2 BIR3 vs BIR2 separation window” value is “+++ (10,000>FS>1,000)”. Further, the “XIAP BIR3 vs BIR2 separation window” value on XIAP-BIR3 was “+++ (10,000>FS>1,000)”.

For the compound `C[C@@H]1CN(CC(=O)N2CC(C)(C)c3[nH]c(=O)c(Cc4ccc(F)cc4)cc32)[C@@H](CN2CCO[C@H](COCc3c(F)c(F)c(COC[C@@H]4CN(C[C@H]5CN[C@H](C)CN5CC(=O)N5CC(C)(C)c6[nH]c(=O)c(Cc7ccc(F)cc7)cc65)CCO4)c(F)c3F)C2)CN1` [Example 85, 1,1′-(2,2′-((3R,3′R,6R,6′R)-(((2S,2'S)-((((perfluoro-1,4-phenylene)bis(methylene))bis(oxy))bis(methylene))bis(morpholine-2,4-diyl))bis(methylene))bis(3-methylpiperazine-6,1-diyl))bis(acetyl))bis(6-(4-fluorobenzyl)-3,3-dimethyl-1,2,3,4-tetrahydro-5H-pyrrolo[3,2-b]pyridin-5-one)], in experiment [1], the EC50 is 0.00049 to 0.0126 µM. Moreover, the IC50 on cIAP1-BIR3 is 0.00794 to 0.0158 µM; at cIAP1-BIR2 it was 3.16 to 10 µM; at cIAP2-BIR3, 0.0158 to 0.0316 µM; on cIAP2-BIR2, 3.16 to 10 µM; on XIAP-BIR3, 0.0316 to 0.501 µM; on XIAP-BIR2 (setting [2]), 10 to 51.3 µM. Moreover, the “cIAP1 BIR3 vs BIR2 separation window” value on cIAP1-BIR3 is reported as “+++ (10,000>FS>1,000)”. Moreover, the “cIAP2 BIR3 vs BIR2 separation window” value at cIAP2-BIR3 is “+++ (10,000>FS>1,000)”. Moreover, the “XIAP BIR3 vs BIR2 separation window” value at XIAP-BIR3 was “++++ (FS>10,000)”.

Turning to `C[C@@H]1CN(CC(=O)N2CC(C)(C)c3[nH]c(=O)c(Cc4ccc(F)cc4)cc32)[C@@H](CN2CCO[C@H](C(=O)N(C)CCCCN(C)C(=O)[C@@H]3CN(C[C@H]4CN[C@H](C)CN4CC(=O)N4CC(C)(C)c5[nH]c(=O)c(Cc6ccc(F)cc6)cc54)CCO3)C2)CN1` [Example 127, (2S,2'S)-N,N′-(butane-1,4-diyl)bis(4-(((2R,5R)-1-(2-(6-(4-fluorobenzyl)-3,3-dimethyl-5-oxo-2,3,4,5-tetrahydro-1H-pyrrolo[3,2-b]pyridin-1-yl)-2-oxoethyl)-5-methylpiperazin-2-yl)methyl)-N-methylmorpholine-2-carboxamide)], the EC50 in experiment [1] is 0.0631 to 0.316 µM. For the same compound, the IC50 at cIAP1-BIR3 is 0.00794 to 0.0158 µM; at cIAP1-BIR2, 1 to 3.16 µM; at cIAP2-BIR3, 0.00794 to 0.0158 µM; at cIAP2-BIR2, 1 to 3.16 µM; at XIAP-BIR3 it was 0.00794 to 0.0158 µM; at XIAP-BIR2 (setting [2]) it was 10 to 51.3 µM. The “cIAP1 BIR3 vs BIR2 separation window” value at cIAP1-BIR3 was “+++ (10,000>FS>1,000)”. Further, the “cIAP2 BIR3 vs BIR2 separation window” value on cIAP2-BIR3 is “+++ (10,000>FS>1,000)”. In addition, the “XIAP BIR3 vs BIR2 separation window” value at XIAP-BIR3 is on record as “++++ (FS>10,000)”.

Take `C[C@@H]1CN(CC(=O)N2CC(C)(C)c3[nH]c(=O)c(Cc4ccc(F)cc4)cc32)[C@@H](CN2CCO[C@H](C(=O)NCCCN(C)C(=O)[C@@H]3CN(C[C@H]4CN[C@H](C)CN4CC(=O)N4CC(C)(C)c5[nH]c(=O)c(Cc6ccc(F)cc6)cc54)CCO3)C2)CN1` [Compound 135, (S)-4-(((2R,5R)-1-(2-(6-(4-fluorobenzyl)-3,3-dimethyl-5-oxo-2,3,4,5-tetrahydro-1H-pyrrolo[3,2-b]pyridin-1-yl)-2-oxoethyl)-5-methylpiperazin-2-yl)methyl)-N-(3-((S)-4-(((2R,5R)-1-(2-(6-(4-fluorobenzyl)-3,3-dimethyl-5-oxo-2,3,4,5-tetrahydro-1H-pyrrolo[3,2-b]pyridin-1-yl)-2-oxoethyl)-5-methylpiperazin-2-yl)methyl)morpholine-2-carboxamido)propyl)-N-methylmorpholine-2-carboxamide]: the EC50 in experiment [1] was 0.0631 to 0.316 µM. The IC50 at cIAP1-BIR3 was 0.0158 to 0.0316 µM; at cIAP1-BIR2, 3.16 to 10 µM; at cIAP2-BIR3, 0.00794 to 0.0158 µM; at cIAP2-BIR2, 3.16 to 10 µM; at XIAP-BIR3 it was 0.0158 to 0.0316 µM; on XIAP-BIR2 (setting [3]), 10 to 51.3 µM. The “cIAP1 BIR3 vs BIR2 separation window” value at cIAP1-BIR3 is “+++ (10,000>FS>1,000)”. Moreover, the “cIAP2 BIR3 vs BIR2 separation window” value on cIAP2-BIR3 was “+++ (10,000>FS>1,000)”. For the same compound, on XIAP-BIR3, the “XIAP BIR3 vs BIR2 separation window” value is on record as “++++ (FS>10,000)”.

For the compound `C[C@@H]1CN(CC(=O)N2CC(C)(C)c3[nH]c(=O)c(Cc4ccc(F)cc4)cc32)[C@@H](CN2CCN(C(=O)Cc3ccccc3CC(=O)N3CCN(C[C@H]4CN[C@H](C)CN4CC(=O)N4CC(C)(C)c5[nH]c(=O)c(Cc6ccc(F)cc6)cc54)[C@H](C)C3)C[C@H]2C)CN1` [Example 7, 1,1′-(2,2′-((3R,3′R,6R,6′R)-(((2R,2′R)-(2,2′-(1,2-phenylene)bis(acetyl))bis(2-methylpiperazine-4,1-diyl))bis(methylene))bis(3-methylpiperazine-6,1-diyl))bis(acetyl))bis(6-(4-fluorobenzyl)-3,3-dimethyl-1,2,3,4-tetrahydro-5H-pyrrolo[3,2-b]pyridin-5-one)], in experiment [1], the EC50 is 0.0631 to 0.316 µM. Besides, the IC50 was 0.0158 to 0.0316 µM on cIAP1-BIR3; 0.0224 to 1 µM on cIAP1-BIR2; 0.0158 to 0.0316 µM at cIAP2-BIR3; 0.0224 to 1 µM on cIAP2-BIR2; 0.0158 to 0.0316 µM on XIAP-BIR3; 1 to 3.16 µM on XIAP-BIR2 (setting [2]).

Take `C[C@@H]1CN(CC(=O)N2CC(C)(C)c3[nH]c(=O)c(Cc4ccc(F)cc4)cc32)[C@@H](CN2CCO[C@H](COc3cccc(OC[C@@H]4CN(C[C@H]5CN[C@H](C)CN5CC(=O)N5CC(C)(C)c6[nH]c(=O)c(Cc7ccc(F)cc7)cc65)CCO4)c3)C2)CN1` [Example 69, 1,1′-(2,2′-((3R,3′R,6R,6′R)-(((2S,2'S)-((1,3-phenylenebis(oxy))bis(methylene))bis(morpholine-2,4-diyl))bis(methylene))bis(3-methylpiperazine-6,1-diyl))bis(acetyl))bis(6-(4-fluorobenzyl)-3,3-dimethyl-1,2,3,4-tetrahydro-5H-pyrrolo[3,2-b]pyridin-5-one)]: the EC50 in experiment [1] is 0.00049 to 0.0126 µM. The IC50 at cIAP1-BIR3 lay in the range of 0.00794 to 0.0158 µM; at cIAP1-BIR2 it was 1 to 3.16 µM; at cIAP2-BIR3 it was 0.00794 to 0.0158 µM; at cIAP2-BIR2, 1 to 3.16 µM; at XIAP-BIR3, 0.0158 to 0.0316 µM; at XIAP-BIR2, 10 to 51.3 µM.
